Settings: for molar entropy: 101.33 kPa; for Triple point temperature: Adiabatic calorimetry

O=P([O-])([O-])[O-].[Cs+].[Mn+2] [cesium manganese(II) phosphate]
Settings | molar entropy [J/K/mol]
5 K, Crystal 3, Vacuum adiabatic calorimetry | 0.572
6 K, Crystal 3, Vacuum adiabatic calorimetry | 0.9894
6.9 K, Crystal 2, Vacuum adiabatic calorimetry | 3.334
6.9 K, Crystal 3, Vacuum adiabatic calorimetry | 1.463
7 K, Crystal 2, Vacuum adiabatic calorimetry | 3.434
8 K, Crystal 2, Vacuum adiabatic calorimetry | 4.099
9 K, Crystal 2, Vacuum adiabatic calorimetry | 4.639
10 K, Crystal 2, Vacuum adiabatic calorimetry | 5.163
15 K, Crystal 2, Vacuum adiabatic calorimetry | 8.007
20 K, Crystal 2, Vacuum adiabatic calorimetry | 11.12
25 K, Crystal 2, Vacuum adiabatic calorimetry | 14.62
30 K, Crystal 2, Vacuum adiabatic calorimetry | 18.46
35 K, Crystal 2, Vacuum adiabatic calorimetry | 22.54
40 K, Crystal 2, Vacuum adiabatic calorimetry | 26.78
45 K, Crystal 2, Vacuum adiabatic calorimetry | 31.05
50 K, Crystal 2, Vacuum adiabatic calorimetry | 35.27
60 K, Crystal 2, Vacuum adiabatic calorimetry | 43.62
70 K, Crystal 2, Vacuum adiabatic calorimetry | 51.79
80 K, Crystal 2, Vacuum adiabatic calorimetry | 59.71
90 K, Crystal 2, Vacuum adiabatic calorimetry | 67.35
100 K, Crystal 2, Vacuum adiabatic calorimetry | 74.73
110 K, Crystal 2, Vacuum adiabatic calorimetry | 81.91
120 K, Crystal 2, Vacuum adiabatic calorimetry | 88.96
127 K, Crystal 1, Vacuum adiabatic calorimetry | 95.03
127 K, Crystal 2, Vacuum adiabatic calorimetry | 93.79
130 K, Crystal 1, Vacuum adiabatic calorimetry | 97.11
140 K, Crystal 1, Vacuum adiabatic calorimetry | 103.68
150 K, Crystal 1, Vacuum adiabatic calorimetry | 110.17
160 K, Crystal 1, Vacuum adiabatic calorimetry | 116.4
170 K, Crystal 1, Vacuum adiabatic calorimetry | 122.56
180 K, Crystal 1, Vacuum adiabatic calorimetry | 128.54
190 K, Crystal 1, Vacuum adiabatic calorimetry | 134.36
200 K, Crystal 1, Vacuum adiabatic calorimetry | 140.02
210 K, Crystal 1, Vacuum adiabatic calorimetry | 145.67
220 K, Crystal 1, Vacuum adiabatic calorimetry | 151.07
230 K, Crystal 1, Vacuum adiabatic calorimetry | 156.4
240 K, Crystal 1, Vacuum adiabatic calorimetry | 161.63
250 K, Crystal 1, Vacuum adiabatic calorimetry | 166.79
260 K, Crystal 1, Vacuum adiabatic calorimetry | 171.86
270 K, Crystal 1, Vacuum adiabatic calorimetry | 176.77
280 K, Crystal 1, Vacuum adiabatic calorimetry | 181.59
290 K, Crystal 1, Vacuum adiabatic calorimetry | 186.41
298.15 K, Crystal 1, Vacuum adiabatic calorimetry | 190.24
300 K, Crystal 1, Vacuum adiabatic calorimetry | 191.15
310 K, Crystal 1, Vacuum adiabatic calorimetry | 195.81
320 K, Crystal 1, Vacuum adiabatic calorimetry | 200.46
330 K, Crystal 1, Vacuum adiabatic calorimetry | 205.03
340 K, Crystal 1, Vacuum adiabatic calorimetry | 209.61
350 K, Crystal 1, Small sample (50 mg) DSC | 214.51
360 K, Crystal 1, Small sample (50 mg) DSC | 218.67
370 K, Crystal 1, Small sample (50 mg) DSC | 222.83
380 K, Crystal 1, Small sample (50 mg) DSC | 226.99
390 K, Crystal 1, Small sample (50 mg) DSC | 231.14
400 K, Crystal 1, Small sample (50 mg) DSC | 235.3
410 K, Crystal 1, Small sample (50 mg) DSC | 239.46
420 K, Crystal 1, Small sample (50 mg) DSC | 243.61
430 K, Crystal 1, Small sample (50 mg) DSC | 247.77
440 K, Crystal 1, Small sample (50 mg) DSC | 251.93
450 K, Crystal 1, Small sample (50 mg) DSC | 255.25
460 K, Crystal 1, Small sample (50 mg) DSC | 259.41
470 K, Crystal 1, Small sample (50 mg) DSC | 262.74
480 K, Crystal 1, Small sample (50 mg) DSC | 266.06
490 K, Crystal 1, Small sample (50 mg) DSC | 270.22
500 K, Crystal 1, Small sample (50 mg) DSC | 273.55
510 K, Crystal 1, Small sample (50 mg) DSC | 276.87
520 K, Crystal 1, Small sample (50 mg) DSC | 280.2
530 K, Crystal 1, Small sample (50 mg) DSC | 283.52
540 K, Crystal 1, Small sample (50 mg) DSC | 286.85
550 K, Crystal 1, Small sample (50 mg) DSC | 290.18
560 K, Crystal 1, Small sample (50 mg) DSC | 293.5
570 K, Crystal 1, Small sample (50 mg) DSC | 296.83
580 K, Crystal 1, Small sample (50 mg) DSC | 300.15
590 K, Crystal 1, Small sample (50 mg) DSC | 302.65
600 K, Crystal 1, Small sample (50 mg) DSC | 305.97
610 K, Crystal 1, Small sample (50 mg) DSC | 309.3
620 K, Crystal 1, Small sample (50 mg) DSC | 311.79
630 K, Crystal 1, Small sample (50 mg) DSC | 315.12
640 K, Crystal 1, Small sample (50 mg) DSC | 317.61
650 K, Crystal 1, Small sample (50 mg) DSC | 320.94

Settings | Triple point temperature [K]
Crystal 2 | 127
Crystal 3 | 6.9
